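Cultured in 96-well plates, cells were exposed to test compound for 48 hours across five concentrations. GI50 marks 50% less growth. TGI denotes the concentration required for complete inhibition of growth.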
What was measured:
Test in all cases: NCI tumour cell line growth inhibition, 48 h; in the data active = GI50 below about 0.43 µM; inactive = the rest
[1] = system: CAKI-1 renal
[2] = system: PC-3 prostate
[3] = system: CCRF-CEM leukemia
[4] = system: HT29 colon
[5] = system: RXF 393 renal
[6] = system: IGROV1 ovarian
[7] = system: ACHN renal
[8] = system: MALME-3M melanoma
[9] = system: MOLT-4 leukemia
[10] = system: SN12C renal
[11] = system: OVCAR-4 ovarian
[12] = system: MDA-MB-231 breast
[13] = system: 786-0 renal
[14] = system: SF-295 CNS
[15] = system: LOX IMVI melanoma
[16] = system: SW-620 colon
[17] = system: NCI-H23 lung
[18] = system: KM12 colon
[19] = system: HOP-92 NSCLC
[20] = system: SK-MEL-2 melanoma
[21] = system: HS 578T breast
[22] = system: TK-10 renal
[23] = system: UO-31 renal
[24] = system: SF-539 CNS
[25] = system: A549 NSCLC
[26] = system: SNB-19 CNS
[27] = system: SNB-75 CNS
[28] = system: A498 renal
[29] = system: NCI-H522 lung
[30] = system: SK-MEL-5 melanoma
[31] = system: T-47D breast
[32] = system: NCI-H460 lung
[33] = system: U251 CNS
[34] = system: SK-MEL-28 melanoma
[35] = system: SF-268 CNS
[36] = system: HCT-116 colon
[37] = system: NCI-H226 lung
[38] = system: HL-60(TB) leukemia
[39] = system: SK-OV-3 ovarian
[40] = system: HOP-62 NSCLC
[41] = system: SR leukemia
[42] = system: COLO 205 colon
[43] = system: OVCAR-5 ovarian
[44] = system: HCC-2998 colon
[45] = system: UACC-257 melanoma
[46] = system: K-562 leukemia
[47] = system: MDA-MB-435
[48] = system: OVCAR-8 ovarian
[49] = system: M14 melanoma
[50] = system: RPMI-8226 leukemia
[51] = system: OVCAR-3 ovarian
[52] = system: MCF7 breast
[53] = system: HCT-15 colon
[54] = system: NCI/ADR-RES ovarian
[55] = system: UACC-62 melanoma
[56] = system: EKVX NSCLC
[57] = system: BT-549 breast
[58] = system: DU-145 prostate
[59] = system: MDA-N

O=C(CSC(c1ccccc1)c1ccccc1)N/N=C/c1ccccc1Cl
57.3 µM: TGI [51]
40.2 µM: TGI [9]
78.6 µM: TGI [35]
25.2 µM: TGI [7]
> 63.2 µM: TGI [32]
inactive: GI50 [1] 37.7 µM | GI50 [2] 14.1 µM | GI50 [3] 17.4 µM | GI50 [4] > 63.2 µM | GI50 [5] 10.2 µM | GI50 [6] 8.07 µM | GI50 [7] 2.18 µM | GI50 [8] 6.28 µM | GI50 [9] 6.33 µM | GI50 [10] 2.66 µM | GI50 [11] 11.3 µM | GI50 [12] 1.46 µM | GI50 [13] 19.8 µM | GI50 [14] 15.9 µM | GI50 [15] 31.1 µM | GI50 [16] 34.7 µM | GI50 [17] 12.8 µM | GI50 [18] 27.1 µM | GI50 [19] 7.7 µM | GI50 [20] > 62.5 µM | GI50 [21] 9.64 µM | GI50 [22] 14.5 µM | GI50 [23] 30.9 µM | GI50 [24] 29 µM | GI50 [25] 13.6 µM | GI50 [26] 43.9 µM | GI50 [27] 7.6 µM | GI50 [28] 7.2 µM | GI50 [29] 30.2 µM | GI50 [30] 21 µM | GI50 [31] > 100 µM | GI50 [32] 34 µM | GI50 [33] 25.8 µM | GI50 [34] 46.1 µM | GI50 [35] 25.5 µM | GI50 [36] 14 µM | GI50 [37] > 33 µM | GI50 [39] > 100 µM | GI50 [40] 22.7 µM | GI50 [41] 9.48 µM | GI50 [42] > 71.8 µM | GI50 [43] 10.7 µM | GI50 [44] 6.9 µM | GI50 [45] 7.05 µM | GI50 [46] 10.2 µM | GI50 [47] 49.6 µM | GI50 [48] 17.9 µM | GI50 [49] 36.8 µM | GI50 [50] 8.73 µM | GI50 [51] 15.6 µM | GI50 [52] 11.2 µM | GI50 [53] 8.36 µM | GI50 [54] 13.6 µM | GI50 [55] 14.7 µM | GI50 [56] 2.75 µM | GI50 [57] 2.75 µM | GI50 [58] 50.6 µM
55.9 µM: TGI [5]
> 51 µM: TGI [53]
> 90.2 µM: TGI [24]
> 34.1 µM: TGI [56]
> 55.6 µM: TGI [6]
30 µM: TGI [27]
> 79.4 µM: TGI [48]
> 73.2 µM: TGI [43]
11.5 µM: TGI [12]
> 54.6 µM: TGI [36]
> 58.4 µM: TGI [33]
> 68.2 µM: TGI [37]
> 100 µM: TGI [1] | TGI [4] | TGI [15] | TGI [16] | TGI [20] | TGI [23] | TGI [26] | TGI [29] | TGI [31] | TGI [34] | TGI [39] | TGI [42] | TGI [47] | TGI [49] | TGI [58]
59.9 µM: TGI [28]
42.5 µM: TGI [8]
65.3 µM: TGI [22]
63.8 µM: TGI [45]
65.5 µM: TGI [13]
> 56.9 µM: TGI [21]
> 68.4 µM: TGI [14]
> 75 µM: TGI [44]
> 52.8 µM: TGI [52]
37.2 µM: TGI [19]
8.46 µM: TGI [38]
11.8 µM: TGI [10]
> 76.8 µM: TGI [40]
46.8 µM: TGI [46]
77.2 µM: TGI [11]
> 57.3 µM: TGI [25]
88.8 µM: TGI [18]
> 40.6 µM: TGI [50]
61.6 µM: TGI [17]
47.2 µM: TGI [30]
> 63.5 µM: TGI [55]
70.1 µM: TGI [2]
43.2 µM: TGI [3]
17 µM: TGI [57]
> 74.6 µM: TGI [54]
26.7 µM: TGI [41]

COc1ccc(/C=C2\Sc3nnc(-c4ccccc4)n3N=C2c2cc(F)c(Cl)cc2Cl)cc1OC
92 µM: TGI [16]
68.9 µM: TGI [9]
54.4 µM: TGI [5]
> 100 µM: TGI [1] | TGI [2] | TGI [3] | TGI [4] | TGI [6] | TGI [7] | TGI [11] | TGI [12] | TGI [13] | TGI [14] | TGI [15] | TGI [17] | TGI [18] | TGI [19] | TGI [20] | TGI [21] | TGI [22] | TGI [23] | TGI [24] | TGI [28] | TGI [30] | TGI [31] | TGI [32] | TGI [59] | TGI [33] | TGI [34] | TGI [35] | TGI [36] | TGI [37] | TGI [38] | TGI [39] | TGI [40] | TGI [41] | TGI [43] | TGI [45] | TGI [46] | TGI [47] | TGI [48] | TGI [49] | TGI [50] | TGI [51] | TGI [52] | TGI [53] | TGI [54] | TGI [56] | TGI [58]
47.2 µM: TGI [44]
38.3 µM: TGI [29]

CC(C)[C@@H]1CC[C@@H](C)C[C@H]1OC(=O)/C=C1\C(C(=O)O[C@@H]2C[C@H](C)CC[C@H]2C(C)C)[C@H]2C=C[C@@H]1O2 (stereo partly drawn)
71.6 µM: TGI [52]
> 100 µM: TGI [1] | TGI [2] | TGI [3] | TGI [4] | TGI [5] | TGI [6] | TGI [7] | TGI [8] | TGI [9] | TGI [10] | TGI [11] | TGI [12] | TGI [13] | TGI [14] | TGI [15] | TGI [16] | TGI [17] | TGI [18] | TGI [19] | TGI [21] | TGI [22] | TGI [23] | TGI [24] | TGI [25] | TGI [26] | TGI [27] | TGI [28] | TGI [29] | TGI [30] | TGI [31] | TGI [32] | TGI [59] | TGI [33] | TGI [34] | TGI [35] | TGI [36] | TGI [37] | TGI [39] | TGI [40] | TGI [41] | TGI [42] | TGI [43] | TGI [44] | TGI [45] | TGI [46] | TGI [47] | TGI [48] | TGI [49] | TGI [50] | TGI [51] | TGI [53] | TGI [54] | TGI [55] | TGI [56] | TGI [58]
76.1 µM: TGI [38]

Source: PubChem BioAssay (NCI)
